{
  "source": "patent US3941776A",
  "about": "“Resolution/racemization of aminolactam compounds” (Allied Chemical Corporation, priority 1974, dated 1976)",
  "assay_type_in_all_cases": "physicochemical",
  "key": {"[1]": {"assay": "Racemization of L-ACL with NiCl2 and base from ion exchange resin (Example 4)", "experimental": "a. A 20 ml ethanol solution containing 8 mmol (D,L-ACL)3 NiCl2 and 8 mmol D,L-ACL was passed through a strongly basic [quaternary ammonium hydroxide type (ANGA-542*)] ion exchange column in about 1 hour. The complex solution was followed by 15 ml ethanol and the combined eluent brought to 50 ml in a volumetric flask.\nA reaction solution was prepared from 0.518g (2 mmol) of 50% L-ACL (88% optically pure) in ethanol, 1.13g (4.4 mmol) 50% D,L-ACL in ethanol and 2.48 ml 0.645 M in NiCl2.H2 O in ethanol. This was brought to reflux and 2.5 ml of the solution described above was added. The final quantities thus are total ACL 8 mmol, Ni^+^2, 2 mmol, ^-OH (free or bound to Ni^+^2), 0.3 mmol and Cl^-. 3.7 Mmol, in a total volume of 6.7 ml.\nb. A 10 ml sample of 0.90 M NiCl2. H2 O in ethanol, was passed through a weakly basic ion exchange resin (IR-45, supplied by Rohm and Haas Company). The eluent had pH 5.5 (measured with a glass electrode in ethanol; the pH of untreated NiCl2 solution was about 3.7). A 1 ml aliquot of the eluent, containing 0.15 m atoms of Ni^+^+, was mixed with 78 mg (0.60 mmols) of L-ACL in 1 ml methanol. The mixture was heated in a sealed vial at 80°C. for 30 minutes."}, "[2]": {"assay": "Racemization of L-ACL in ACL/NiCl2 solution with sodium methoxide (Example 1, Table 1)", "conditions": "0.20 M NiCl2", "experimental": "A sample of 0.702g. […] The molar ratio of ACL to NiCl2 in this solution is 3.5. […] Samples of 2.0 ml each of the solution were sealed and placed in a 60°C. (50° and 40°) bath. At different time intervals the samples were taken from the bath to determine the extent of racemization of L-ACL. To this end each sample was quenched and adjusted to 5.0 ml with 1N.HCl. […] The latter correlation is indicative of the importance of rendering Ni^+^+ coordinately saturated. It should be noted that even at temperatures as low as 40°C. suitable reaction rates are obtained and, in general, a temperature range of about 40° to about 95°C. may be used."}, "[3]": {"assay": "Racemization of L-ACL.HCl/L-ACL with catalysts (Examples 13-42, Table IV)", "conditions": "15 minutes at 70°C, Cu^II (5-nitrosalicylaldehyde)2, H2O/dimethylformamide 20/80", "experimental": "A solution containing 0.160g (1.25 mmol) L-ACL, 0.206g (1.25 mmol) L-ACL.HCl and […] of Cu^II (5-nitrosalicylaldehyde)2 in 20/80 (v/v) H2 O/dimethylformamide (10 ml overall volume) was heated for 15 minutes at 70°C.\nFollowing the procedure of Example 13, racemization of L-ACL.HCl was conducted in the presence of various catalysts and under various conditions of temperature and concentration; the data is summarized in Table IV."}},
  "data": [
    {"smiles": "N[C@H]1CCCCNC1=O", "note": "[L-ACL, L-α-amino-ε-caprolactam]", "values": [
      {"measurement": "extent of racemization", "setting": "[1]; 80°C, 30 minutes, NiCl2 eluent from IR-45 resin, methanol", "result": "completely racemized"},
      {"measurement": "t1/2 of racemization", "setting": "[1]; ethanol, reflux (~80°C), NiCl2, base from ANGA-542 resin", "result": 0.175, "unit": "h"},
      {"measurement": "Racemization Rate t1/2", "setting": "[2]; ACL/NiCl2 mole ratio 3.5, Ethanol, 60°C", "result": 1.17, "unit": "h"},
      {"measurement": "Racemization Rate t1/2", "setting": "[2]; ACL/NiCl2 mole ratio 3.5, Methanol, 40°C", "result": 16.73, "unit": "h"},
      {"measurement": "Racemization Rate t1/2", "setting": "[2]; ACL/NiCl2 mole ratio 3.5, Methanol, 50°C", "result": 5.67, "unit": "h"},
      {"measurement": "Racemization Rate t1/2", "setting": "[2]; ACL/NiCl2 mole ratio 4, Ethanol, 60°C", "result": 0.717, "unit": "h"},
      {"measurement": "Racemization Rate t1/2", "setting": "[2]; ACL/NiCl2 mole ratio 4, Methanol, 40°C", "result": 12.8, "unit": "h"},
      {"measurement": "Racemization Rate t1/2", "setting": "[2]; ACL/NiCl2 mole ratio 4, Methanol, 50°C", "result": 4.33, "unit": "h"},
      {"measurement": "Racemization Rate t1/2", "setting": "[2]; ACL/NiCl2 mole ratio 5, Ethanol, 60°C", "result": 0.433, "unit": "h"},
      {"measurement": "Racemization Rate t1/2", "setting": "[2]; ACL/NiCl2 mole ratio 5, Methanol, 40°C", "result": 9.72, "unit": "h"},
      {"measurement": "Racemization Rate t1/2", "setting": "[2]; ACL/NiCl2 mole ratio 5, Methanol, 50°C", "result": 2.7, "unit": "h"},
      {"measurement": "Racemization Rate t1/2", "setting": "[2]; ACL/NiCl2 mole ratio 6, Ethanol, 60°C", "result": 0.367, "unit": "h"},
      {"measurement": "Racemization Rate t1/2", "setting": "[2]; ACL/NiCl2 mole ratio 6, Methanol, 40°C", "result": 10.2, "unit": "h"},
      {"measurement": "Racemization Rate t1/2", "setting": "[2]; ACL/NiCl2 mole ratio 6, Methanol, 50°C", "result": 2.83, "unit": "h"}
    ]},
    {"smiles": "Cl.N[C@H]1CCCCNC1=O", "note": "[L-ACL.HCl, L-α-amino-ε-caprolactam hydrochloride]", "values": [
      {"measurement": "extent of racemization", "setting": "[3]", "result": "complete racemization"}
    ]}
  ]
}
